Source: patent US7410757B1, “Method of screening disease depressant gene” (Keio University, priority 1999, dated 2008)
“Also recorded” adds a separate entry of the source. No end group written: not given here.

Legend:
F11 cells [1] = test: F11 cell death induced by ALS-associated SOD1 mutants (A4T, G85R, G93A), trypan blue exclusion assay; type: cell-based; conditions: 100 μM polypeptide, G85R or G93A SOD1
Protocol: (§1) F11 cells (Platika, D. et al. (1985) Proc. Natl. Acad. Sci. U.S.A. 82, 3499-3503; Yamatsuji, T. et al. (1996) Science 272, 1349-1352) were cultured in HamF-12 media containing 18% fetal bovine serum (FBS) and antibiotics. 7×10^4/well of F11 cells were seeded into a 6-well plate; cultured in HamF-12 containing 18% FBS for 12 to 16 hours; transfected 3 hours with plasmids encoding FAD genes and plasmids encoding HN (pHN, and such) by lipofection in the absence of serum (1 μg of FAD cDNA expression plasmid, 1 μg of HN cDNA expression plasmid, 4 μl of LipofectAMINE, 8 μl of Plus reagent); and then, were cultured for 2 hours in HamF-12 media containing 18% FBS. Then, culture media were exchanged with HamF-12 media containing 10% FBS; and the cells were cultured for additional 67 hours. 72 hours after transfection, cell death was measured by trypan blue exclusion assay. Experiments using synthetic HN polypeptides were conducted as follows: F11 cells (at 7×10^4/well in a 6-well plate) were transfected 3 hours with FAD genes in the absence of serum, as mentioned above; after cultivation for 2 hours in HamF-12 media containing 18% FBS, the cells were cultured for 67 hours in HamF-12 media containing 10% FBS with various concentrations of HN polypeptides; and cell death was measured by trypan blue exclusion assay. ALS-associated mutant cDNAs of SOD1 were also similarly transfected, and examined for their neurotoxicity.
(§2) Trypan blue exclusion assay was performed as follows. […] Within 3 minutes of the trypan blue solution addition, stained cells were counted. Cell mortality was determined [100−cell survival rate (%)] based on the stained cell count. […] Specifically, 6 μM Calcein-AM {3′,6′-Di-(O-acetyl)-2′,7′-bis[N,N-bis(carboxymethyl)aminomethyl]fluorescein, tetraacetoxymethyl ester; Dojindo, Cat. #349-07201} was added to the neurons; and 30 minutes or longer after Calcein-AM treatment, fluorescence (ex=490 nm, em=515 nm) was observed by fluorescence microscopy, and measured by a spectrometer. Specific fluorescence was calculated by subtracting basal fluorescence from total fluorescence. […]

[2] = system: primary cultured cortical neurons; test: Aβ1-43-induced cell death of primary cultured cortical neurons (trypan blue, LDH release, Calcein-AM, morphology); type: cell-based, mouse; conditions: for effect on Aβ-induced cell death and dystrophic neuritic changes of the axon: 25 μM Aβ1-43, 72 h
Protocol: Primary culture of mouse cortical neurons was performed in poly-D-lysine-coated 24-well plates (Sumitomo Bakelite) in the absence of serum and in the presence of N2 supplement, as described in literature (Eksioglu, Y. Z. et al. (1994) Brain Res. 644, 282-90). The purity of neurons prepared according to the method was >98%. The prepared neurons (1.25×10^5/well, 250 μl media/well) were preincubated in the absence or presence of 10 nM or 10 μM sHN polypeptides for 16 hours; and were treated with 25 μM Aβ1-43 in the absence or presence of sHN polypeptides at the same concentrations for 24 to 72 hours. Since primary cultured neurons are damaged even by temporary dryness during medium exchange, treatment of the cells by Aβ1-43 was performed as follows. First, half of the volume of the old medium (125 μl) was discarded. Then, 125 μl of pre-warmed fresh medium containing 50 μM Aβ1-43 and sHN with a concentration indicated above were added to the culture.
(§3) Trypan blue exclusion assay was performed as follows. Without prewashing, the cells were suspended with gentle pipetting into a serum-free media. 50 μl of 0.4% trypan blue solution (Sigma, Cat. #T-8154) were added (final concentration of 0.08%) to 200 μl cell suspension, and the suspension was mixed at room temperature. Within 3 minutes of the trypan blue solution addition, stained cells were counted. Cell mortality was determined [100−cell survival rate (%)] based on the stained cell count. LDH assay was performed using a kit (LDH-Cytotoxic Test; Wako Pure Chemical Industries, Cat. #299-50601) by sampling 6 μl of media in which neurons were cultured. Calcein staining was performed as described in literature (Bozyczko-Coyne, D. et al. (1993) Journal of Neuroscience Methods 50, 205-216). Specifically, 6 μM Calcein-AM {3′,6′-Di-(O-acetyl)-2′,7′-bis[N,N-bis(carboxymethyl)aminomethyl]fluorescein, tetraacetoxymethyl ester; Dojindo, Cat. #349-07201} was added to the neurons; and 30 minutes or longer after Calcein-AM treatment, fluorescence (ex=490 nm, em=515 nm) was observed by fluorescence microscopy, and measured by a spectrometer. Specific fluorescence was calculated by subtracting basal fluorescence from total fluorescence. Basal fluorescence was assigned to be the value calculated from linear trypan blue positivity-fluorescence intensity relationship, corresponding to 100% trypan blue positivity.

F11/EcR cells [3] = test: F11/EcR cell death caused by ecdysone-induced expression of polyglutamine Q79, trypan blue exclusion assay; type: cell-based; conditions: 1 μM polypeptide, ecdysone 72 h
Protocol: F11/EcR cell experiment using ecdysone was conducted as follows: F11/EcR cells were seeded at 7×10^4/well into a 6-well plate; cultured for 12 to 16 hours in HamF-12 media containing 18% FBS; and were similarly transfected in the absence of serum for 3 hours with 1 μg of ecdysone-inducible plasmid alone, or with 1 μg of HN-encoding plasmid, as mentioned above. After culturing for 12 to 16 hours in HamF-12 media containing 18% FBS, the cells were cultured for 2 hours in HamF-12 media containing 10% FBS, then ecdysone (Ponasterone) was added to the media (final concentration of 40 μM). Cell death was measured 72 hours after ecdysone treatment. Experiments using synthetic HN polypeptides were conducted as follows: cells were similarly transfected for 3 hours with FAD genes in the absence of serum; cultured for 12 to 16 hours in HamF-12 media containing 18% FBS; cultured for 2 hours in HamF-12 media containing 10% FBS and various concentrations of HN polypeptide; and then, 40 μM Ponasterone was added to the media. Cell death was measured by trypan blue exclusion assay after 72 hours from the ecdysone treatment. HD/SCA-associated Q79 cDNAs were also similarly transfected, and the neurotoxicity was tested.
Trypan blue exclusion assay was performed as follows. […] Within 3 minutes of the trypan blue solution addition, stained cells were counted. Cell mortality was determined [100−cell survival rate (%)] based on the stained cell count. […] Specifically, 6 μM Calcein-AM {3′,6′-Di-(O-acetyl)-2′,7′-bis[N,N-bis(carboxymethyl)aminomethyl]fluorescein, tetraacetoxymethyl ester; Dojindo, Cat. #349-07201} was added to the neurons; and 30 minutes or longer after Calcein-AM treatment, fluorescence (ex=490 nm, em=515 nm) was observed by fluorescence microscopy, and measured by a spectrometer. Specific fluorescence was calculated by subtracting basal fluorescence from total fluorescence. Basal fluorescence was assigned to be the value calculated from linear trypan blue positivity-fluorescence intensity relationship, corresponding to 100% trypan blue positivity.

F11 cells [4] = test: F11 cell death induced by transfection of FAD genes, trypan blue exclusion assay; type: cell-based
Protocol: as §1, §3

F11/EcR cells [5] = test: F11/EcR cell death caused by ecdysone-induced expression of FAD genes, trypan blue exclusion assay; type: cell-based; conditions: treated with 1M sHN (so in the source); NL-APP, V642I APP, M146L PS-1 or N141I PS-2; ecdysone 72 h
Protocol: F11/EcR cell experiment using ecdysone was conducted as follows: F11/EcR cells were seeded at 7×10^4/well into a 6-well plate; cultured for 12 to 16 hours in HamF-12 media containing 18% FBS; and were similarly transfected in the absence of serum for 3 hours with 1 μg of ecdysone-inducible plasmid alone, or with 1 μg of HN-encoding plasmid, as mentioned above. After culturing for 12 to 16 hours in HamF-12 media containing 18% FBS, the cells were cultured for 2 hours in HamF-12 media containing 10% FBS, then ecdysone (Ponasterone) was added to the media (final concentration of 40 μM). Cell death was measured 72 hours after ecdysone treatment. […] Cell death was measured by trypan blue exclusion assay after 72 hours from the ecdysone treatment. […]
as §2, with “spectrometer.” for “spectrometer. Specific fluorescence was calculated by subtracting basal fluorescence from total fluorescence.”

primary cultured neurons = test: Etoposide-induced cell death of primary cultured neurons (trypan blue, LDH release); type: cell-based, mouse; conditions: 10 μM polypeptide, 20 μM etoposide, 72 h
Protocol: 25 μM Aβ1-43 was added to primary cultured cortical neurons in the presence (at indicated concentrations) or absence of sHN, sHNG, or sHNA. Addition of HN polypeptides was performed similarly to that described in FIG. 12. 72 hours after the initiation of Aβ treatment, cell death was measured by trypan blue exclusion assay. Primary cultured neurons treated similarly for 72 hours with 20 μM etoposide in the presence or absence of 10 μM sHN or HN derivatives were used as the positive controls in these experiments. Similar experiments were performed at least three times, and reproducible results were obtained. Mean ±S.D. values of three independent experiments are indicated in the graphs.
Cell damage was monitored as the amount of LDH released into the culture media. […] 24, 48, or 72 hours after the initiation of Aβ treatment, the amount of LDH in the culture media was measured. LDH release from neurons treated with 20 μM etoposide in the presence or absence of HN polypeptides was also measured. […]
Trypan blue exclusion assay was performed as follows. […] Within 3 minutes of the trypan blue solution addition, stained cells were counted. Cell mortality was determined [100−cell survival rate (%)] based on the stained cell count. […] Specific fluorescence was calculated by subtracting basal fluorescence from total fluorescence. […]

[6] = 10 μM polypeptide, 25 μM Aβ1-43

## MAPRGFSALLLLTSEIDLPVKRRA [sHNA]
F11 cells [1]
  effect of synthetic polypeptide on neuronal death induced by SOD1 mutants: couldn't be suppressed; also recorded: lack of the effect
[2]; 10 μM polypeptide
  effect on Aβ-induced cell death and dystrophic neuritic changes of the axon: did not show any effect
F11/EcR cells [3]
  effect of synthetic polypeptide on neuronal death induced by Q79: Extensive cell death; also recorded: lack of effects
F11 cells [4]; concentrations up to 100 μM
  suppression of cell death induced by V642I APP: did not significantly suppress
F11 cells [4]; up to a concentration of 100 μM
  antagonism of cell death by NL-APP, M146L PS-1 and N141I PS-2: did not antagonize

## MAPRGFSCLLLLTGEIDLPVKRRA [sHNG]
F11/EcR cells [5]
  effect of synthetic polypeptide on cell death caused by ecdysone-induced expression of FAD genes: complete suppression
F11 cells [1]
  effect of synthetic polypeptide on neuronal death induced by SOD1 mutants: couldn't be suppressed; also recorded: lack of the effect
[2]; 10 nM polypeptide
  effect on Aβ-induced cell death and dystrophic neuritic changes of the axon: completely protected
F11/EcR cells [3]
  effect of synthetic polypeptide on neuronal death induced by Q79: Extensive cell death; also recorded: lack of effects
F11 cells [4]; 72 h
  concentration giving complete antagonizing effect on cell death induced by V642I APP: ≤ 10 nM
F11 cells [4]; V642I APP, NL-APP, M146L PS-1, N141I PS-2
  concentration completely antagonizing neuronal death induced by all of the four different types of FAD genes: ≤ 10 nM
F11 cells [4]; any of the FAD genes, 72 h
  concentration completely suppressing cell death caused by NL-APP, M146L PS-1 and N141I PS-2: ≤ 10 nM
F11 cells [4]; relative to original HN
  enhancement of the action of HN by S14G substitution: 100 to 1000 fold

## NGF: NGF tested at 100 ng/ml as comparator [reference compound]
[2]; 100 ng/ml, data not shown
  antagonism of cell death of neurons induced by Aβ: did not show effects to antagonize
  antagonism of increased LDH release induced by Aβ: did not show effects to antagonize

## CC[C@H](C)[C@H](NC(=O)[C@H](CCC(=O)O)NC(=O)[C@H](CO)NC(=O)[C@@H](NC(=O)[C@H](CC(C)C)NC(=O)[C@H](CC(C)C)NC(=O)[C@H](CC(C)C)NC(=O)[C@H](CC(C)C)NC(=O)[C@H](CS)NC(=O)[C@H](CO)NC(=O)[C@H](Cc1ccccc1)NC(=O)CNC(=O)[C@H](CCCNC(=N)N)NC(=O)[C@@H]1CCCN1C(=O)[C@H](C)NC(=O)[C@@H](N)CCSC)[C@@H](C)O)C(=O)N[C@@H](CC(=O)O)C(=O)N[C@@H](CC(C)C)C(=O)N1CCC[C@H]1C(=O)N[C@H](C(=O)N[C@@H](CCCCN)C(=O)N[C@@H](CCCNC(=N)N)C(=O)N[C@@H](CCCNC(=N)N)C(=O)N[C@@H](C)C(=O)O)C(C)C [sHN]
F11/EcR cells [5]
  effect of synthetic polypeptide on cell death caused by ecdysone-induced expression of FAD genes: complete suppression; also recorded: significant suppressive effect
F11 cells [1]
  effect of synthetic polypeptide on neuronal death induced by SOD1 mutants: couldn't be suppressed; also recorded: lack of the effect
[2]; 10 nM polypeptide
  effect on Aβ-induced cell death and dystrophic neuritic changes of the axon: did not show any effect
[2]; [6]
  cell damage (LDH released from the cells) after Aβ1-43 treatment: completely restored to a level observed under basal conditions
  cell death (trypan blue exclusion) after Aβ1-43 treatment: completely restored to a level observed under basal conditions
[2]; 10 μM polypeptide
  effect on Aβ-induced cell death and dystrophic neuritic changes of the axon: dramatically suppressed
F11/EcR cells [3]
  effect of synthetic polypeptide on neuronal death induced by Q79: not suppressed; also recorded: lack of effects
F11 cells [4]; 10 nM polypeptide, 72 h
  suppression of cell death induced by V642I APP: extremely weak suppression
F11 cells [4]; 10 μM polypeptide, 72 h
  suppression of cell death induced by V642I APP: dramatically suppressed
F11 cells [4]; 72 h
  concentration achieving complete suppression of cell death induced by V642I APP: 1 to 10 µM
F11 cells [4]; any of the three FAD genes, 72 h
  concentration blocking neuronal death induced by NL-APP, M146L PS-1 and N141I PS-2: 1 µM
Primary cultured neurons
  prevention of the toxic effect of etoposide on primary cultured neurons: could not prevent
